Experiments:
SF539 (Glioblastoma) = test: Bliss excess, mean over the matrix (fraction); higher = more synergy
Outline: (§1)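 Cell lines grown in DMEM/F12 or RPMI with 10% FBS were plated in 1536-well plates and held 24 hours at 37°C, 5% CO2 before 72 hours of exposure to two-drug dose matrices, with DMSO typically at 0.2%. CellTiter-Glo 2.0 luminescence gave viability, which was converted to inhibition. Vehicle wells were set to 0 and blank wells to 1. Combination Emax is the second-highest inhibition in the matrix, and Bliss excess is the observed combination effect minus the expected EA + EB − EA·EB, where EA and EB are the single-agent effects.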

GB-1 (Glioblastoma) = test: as above
Outline: as §1

[1] = tested on: RKN (Other Solid Carcinomas); test: as above
Outline: as §1

WM793B (Melanoma) = test: combination Emax (second highest fraction inhibited in the dose matrix, 72 h); higher = more inhibition; extreme values may be limits of the assay
Outline: as §1

[2] = tested on: NCI-H2342 (Lung Adenocarcinoma); test: as above
Outline: as §1

A2058 (Melanoma) = test: as above
Outline: as §1

[3] = tested on: NCI-H446 (Small Cell Lung Carcinoma); test: as above
Outline: as §1

[4] = tested on: PC-3_[JPC-3] (Lung Adenocarcinoma); test: as above
Outline: as §1

[5] = tested on: COLO-680N (Esophageal Squamous Cell Carcinoma); test: as above
Outline: as §1

[6] = tested on: MFE-280 (Endometrial Carcinoma); test: as above
Outline: as §1

[7] = tested on: OVMIU (Ovarian Carcinoma); test: as above
Outline: as §1

[8] = tested on: CAL-120 (Breast Carcinoma); test: as above
Outline: as §1

[9] = tested on: RCM-1 (Colorectal Carcinoma); test: as above
Outline: as §1

[10] = tested on: CAL-62 (Thyroid Gland Carcinoma); test: as above
Outline: as §1

[11] = tested on: KE-37 (T-Lymphoblastic Leukemia); test: as above
Outline: as §1

[12] = tested on: RERF-GC-1B (Gastric Carcinoma); test: as above
Outline: as §1

[13] = tested on: PANC-03-27 (Pancreatic Carcinoma); test: as above
Outline: as §1

[14] = tested on: MKN45 (Gastric Carcinoma); test: as above
Outline: as §1

[15] = tested on: VAL (B-Cell Non-Hodgkin's Lymphoma); test: as above
Outline: as §1

SF268 (Low Grade Glioma) = test: as above
Outline: as §1
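For Bliss excess, mean over the matrix in this document: after 72 h of two-drug dosing.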

| Compound | Bliss excess (SF539 (Glioblastoma)) | Bliss excess (GB-1 (Glioblastoma)) | Bliss excess [1] | combination Emax (WM793B (Melanoma)) | combination Emax [2] | combination Emax (A2058 (Melanoma)) | combination Emax [3] | combination Emax [4] | combination Emax [5] | combination Emax [6] | combination Emax [7] | combination Emax [8] | combination Emax [9] | combination Emax [10] | combination Emax [11] | combination Emax [12] | combination Emax [13] | combination Emax [14] | combination Emax [15] | combination Emax (SF268 (Low Grade Glioma)) |
| --- | --- | --- | --- | --- | --- | --- | --- | --- | --- | --- | --- | --- | --- | --- | --- | --- | --- | --- | --- | --- |
| CN(CCO)CC[C@H](CSc1ccccc1)Nc1ccc(S(=O)(=O)NC(=O)c2ccc(N3CCC([C@@H](O)c4ccccc4-c4ccc(Cl)cc4)CC3)cc2)cc1S(=O)(=O)C(F)(F)F [AZD4320] + C[C@@H]1COCCN1C2=NC(=NC(=C2)C3(CC3)[S@](=N)(=O)C)C4=C5C=CNC5=NC=C4 [AZD6738] (first compound max 1 µM, 7x7, partner max 10 µM) | -0.0706 | -0.0314 | -0.03 | 0.844 | 0.377 | 0.782 | 0.941 | 0.375 | 0.346 | 0.88 | 0.824 | 0.757 | 0.862 | 0.936 | 1 | 0.621 | 0.926 | 0.8 | 1 | 0.78 |
| CC(=O)c1c(C)c2cnc(Nc3ccc(N4CCNCC4)cn3)nc2n(C2CCCC2)c1=O [Palbociclib] + CC1(C)CCC(CN2CCN(c3ccc(C(=O)NS(=O)(=O)c4ccc(NCC5CCOCC5)c([N+](=O)[O-])c4)c(Oc4cnc5[nH]ccc5c4)c3)CC2)=C(c2ccc(Cl)cc2)C1 [Venetoclax] (first compound max 10 µM, 7x7, partner max 1 µM) | -0.0164 | -0.0448 | -0.0841 | 0.327 | 0.0497 | 0.0912 | 0.462 | 0.176 | 0.0584 | 0.0835 | 0.149 | 0.134 | 0.394 | 0.151 | 0.776 | 0.0488 | 0.131 | 0.486 | 0.997 | 0.254 |
| COc1nnc2ccc(N3CCC(c4ccc(OCCN5CCN(C)C(=O)[C@H]5C)cc4)CC3)nn12 [AZD5153] + CCN(CCO)CCCOc1ccc2c(Nc3cc(CC(=O)Nc4cccc(F)c4)[nH]n3)ncnc2c1 [AZD2811] (first compound max 1 µM, 7x7, partner max 1 µM) | -0.0184 | -0.0787 | -0.0286 | 0.641 | 0.433 | 0.788 | 0.962 | 0.425 | 0.357 | 0.348 | 0.706 | 0.441 | 0.612 | 0.774 | 1 | 0.685 | 0.179 | 0.556 | 0.727 | 0.609 |
